Assay results published in patent US8367658B2, “Pyrazin-2-yl-pyridin-2-yl-amine and pyrazin-2-yl-pyrimidin-4-yl-amine compounds and their use” (Cancer Research Technology Limited, priority 2007, dated 2013).
Values joined by “and” are separate entries in the source; they are usually repeats but may differ in a detail not shown here. Equal entries are not always repeated.

The molecules below were run against T1, CHK1 (Homo sapiens, UniProt O14757) (assay: CHK1 kinase function inhibition assay (DELFIA, phosphorylation of a CDC25C peptide)). Conditions: CHK1 1 nM, ATP 30 μM, 30 minutes at room temperature.
T1 sequence (O14757 1-476): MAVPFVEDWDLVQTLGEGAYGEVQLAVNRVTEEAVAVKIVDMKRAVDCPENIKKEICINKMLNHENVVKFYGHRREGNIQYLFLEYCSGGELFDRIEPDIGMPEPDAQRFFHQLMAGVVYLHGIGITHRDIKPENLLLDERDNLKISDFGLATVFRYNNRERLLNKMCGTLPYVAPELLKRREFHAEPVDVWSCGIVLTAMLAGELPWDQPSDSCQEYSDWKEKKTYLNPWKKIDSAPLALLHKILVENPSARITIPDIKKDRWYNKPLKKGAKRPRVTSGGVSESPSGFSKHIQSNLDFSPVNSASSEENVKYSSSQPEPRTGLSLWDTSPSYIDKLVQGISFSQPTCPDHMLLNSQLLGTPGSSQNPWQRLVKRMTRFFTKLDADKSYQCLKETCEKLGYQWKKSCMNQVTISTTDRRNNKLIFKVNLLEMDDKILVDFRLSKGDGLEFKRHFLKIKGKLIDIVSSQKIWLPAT
Type: biochemical
Method: Measurement of Inhibition of CHK1 Kinase Function
CHK1 kinase function was measured in a DELFIA® assay in order to monitor phosphorylation of a CDC25C peptide using a specific phospho antibody.
The reaction mixture was incubated for 30 minutes at room temperature and then stopped by the addition of buffer (125 μL) containing 40 mM EDTA, 0.05% Tween 20, 0.1% BSA in TBS (10× concentrate, Sigma). An aliquot (100 μL) of the stopped reaction mixture was transferred to a black neutravidin-coated plate (Perbio) and incubated for 1 hour on a shaker (Titertek, Flow Laboratories) at room temperature. […] The plates were washed a further four times with wash buffer before the addition of enhancement solution (100 μL/well, PerkinElmer Life Sciences).

IC50 | SMILES
≤ 1000 nM and 100 to 1000 nM | N#Cc1cnc(Nc2cc(NC3CCNCC3)c(N)cn2)cn1 [Compound Y-005, 5-(5-Amino-4-(piperidin-4-ylamino)pyridin-2-ylamino)pyrazine-2-carbonitrile]
100 to 1000 nM | N#Cc1cnc(Nc2cc(NCC3CCCNC3)c(NC(=O)CCN3CCOCC3)cn2)cn1 (stereo not shown) [Compound Y-055, N-(6-(5-Cyanopyrazin-2-ylamino)-4-(piperidin-3-ylmethylamino)pyridin-3-yl)-3-morpholinopropanamide]
100 to 1000 nM | N#Cc1cnc(Nc2cc(NCC3CCNCC3)c(CCCCO)cn2)cn1 [Compound Y-142, 5-(5-(4-hydroxybutyl)-4-(piperidin-4-ylmethylamino)pyridin-2-ylamino)pyrazine-2-carbonitrile]
≤ 100 nM | COCCCc1cnc(Nc2cnc(C#N)cn2)cc1NC[C@H]1CNCCO1 [Compound Y-159, (R)-5-(5-(3-Methoxypropyl)-4-(morpholin-2-ylmethylamino)pyridin-2-ylamino)pyrazine-2-carbonitrile]
100 to 1000 nM | COCCCOc1ccc(-c2cnc(Nc3cnc(C#N)cn3)cc2NCC2CCNCC2)cc1 [Compound Y-133, 5-(5-(4-(3-Methoxypropoxy)phenyl)-4-(piperidin-4-ylmethylamino)pyridin-2-ylamino)pyrazine-2-carbonitrile]
≤ 100 nM | N#Cc1cnc(Nc2cc(NCCC3CNCCO3)c(-c3ccccc3)cn2)cn1 (stereo not shown) [Compound Y-138, 5-(4-(2-(Morpholin-2-yl)ethylamino)-5-phenylpyridin-2-ylamino)pyrazine-2-carbonitrile]
≤ 100 nM | N#Cc1cnc(Nc2cc(NCC3CNCCO3)c(C(=O)Nc3ccccc3)cn2)cn1 (stereo not shown) [Compound Y-102, 6-(5-Cyanopyrazin-2-ylamino)-4-(morpholin-2-ylmethylamino)-N-phenylnicotinamide]
100 to 1000 nM | COCCN(C)C(=O)c1cnc(Nc2cnc(C#N)cn2)cc1NCC1CCNCC1 [Compound Y-091, 6-(5-Cyanopyrazin-2-ylamino)-N-(2-methoxyethyl)-N-methyl-4-(piperidin-4-ylmethylamino)nicotinamide]

Further lines, the molecule ahead of its results:

SMILES | IC50
CN1CCC(Nc2cc(Nc3cnc(C#N)cn3)ncc2-c2ccsc2)CC1 [Compound Y-112, 5-(4-(1-methylpiperidin-4-ylamino)-5-(thiophen-3-yl)pyridin-2-ylamino)pyrazine-2-carbonitrile] | ≤ 100 nM
Cc1ccccc1-c1cnc(Nc2cnc(C#N)cn2)cc1NC1CCN(C)CC1 [Compound Y-121, 5-(4-(1-Methylpiperidin-4-ylamino)-5-o-tolylpyridin-2-ylamino)pyrazine-2-carbonitrile] | 100 to 1000 nM
N#Cc1cnc(Nc2cc(NCCN)c(N)cn2)cn1 [Compound Y-003, 5-(5-Amino-4-(2-aminoethylamino)pyridin-2-ylamino)pyrazine-2-carbonitrile] | ≤ 1000 nM and 660 nM and 100 to 1000 nM
CN(C)CC(=O)Nc1cnc(Nc2cnc(C#N)cn2)cc1NC1CCNCC1 [Compound Y-016, N-(6-(5-Cyanopyrazin-2-ylamino)-4-(piperidin-4-ylamino)pyridin-3-yl)-2-(dimethylamino)acetamide] | ≤ 1000 nM and 100 to 1000 nM
COC(=O)c1cnc(Nc2cnc(C#N)cn2)cc1N[C@H]1CCN[C@H](C(=O)Nc2ccccc2)C1 [Compound Y-028, Methyl 6-(5-cyanopyrazin-2-ylamino)-4-((2S,4S)-2-(phenylcarbamoyl)piperidin-4-ylamino)nicotinate] | ≤ 1000 nM and 100 to 1000 nM
N#Cc1cnc(Nc2cc(NCCCCN)ncn2)cn1 [Compound Z-016, 5-(6-(4-Aminobutylamino)pyrimidin-4-ylamino)pyrazine-2-carbonitrile] | ≤ 1000 nM and 600 nM and 100 to 1000 nM
CN(C)CC(=O)Nc1cnc(Nc2cnc(C#N)cn2)cc1N[C@@H]1CCCNC1 [Compound Y-043, (R)—N-(6-(5-Cyanopyrazin-2-ylamino)-4-(piperidin-3-ylamino)pyridin-3-yl)-2-(dimethylamino)acetamide] | 100 to 1000 nM
CN1C2CCC1CC(Nc1cc(Nc3cnc(C#N)cn3)ncc1N)C2 (stereo not shown) [Compound Y-006, 5-(5-Amino-4-(8-methyl-8-aza-bicyclo[3.2.1]octan-3-ylamino)-pyridin-2-ylamino)pyrazine-2-carbonitrile] | 1000 to 10000 nM
